# Experimental data published in paper PMC3152620 (Peptides, 2011).
# No end group written: not given here.
# Target: human NMB receptor (Homo sapiens, UniProt P28336)
# Assay: Binding to hNMB receptors, both cell lines
# Conditions: relative to the natural ligand NMB
# human NMB receptor, sequence (P28336 whole entry): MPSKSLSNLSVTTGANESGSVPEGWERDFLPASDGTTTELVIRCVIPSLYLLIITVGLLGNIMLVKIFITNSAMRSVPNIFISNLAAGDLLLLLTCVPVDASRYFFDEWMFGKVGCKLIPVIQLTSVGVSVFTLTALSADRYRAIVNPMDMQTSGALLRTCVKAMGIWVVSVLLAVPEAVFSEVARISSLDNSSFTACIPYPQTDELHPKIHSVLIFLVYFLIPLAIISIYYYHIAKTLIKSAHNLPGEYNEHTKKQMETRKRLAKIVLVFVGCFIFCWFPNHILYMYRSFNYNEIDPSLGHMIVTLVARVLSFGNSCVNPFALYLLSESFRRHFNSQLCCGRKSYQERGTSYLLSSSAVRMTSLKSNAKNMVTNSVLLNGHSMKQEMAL
substance,measurement,value
"LSWDLPEPRSRAGKIRVHPRGNLWATGHFM-NH2 [NMB30, Neuromedin B (1–30)]",Fold lower affinity for human NMB receptor than NMB,> 3 fold
